Experimental data from patent US20170000715A1, “PEGYLATED 7-DEHYDROCHOLESTEROL DERIVATIVES” (HUMEDIX CO., LTD., priority 2014, published 2017).

Assay: Solubility test (saturated aqueous solution in distilled water, gravimetric)
Type: physicochemical
Conditions: room temperature, calculated according to Equation 1
Protocol: Each of compounds of Examples 1 and 5 and 7-dehydrocholesterol as a comparative material was dissolved in an amount of 100 mg in 100 ml of distilled water, followed by stirring at room temperature for 1 hour. The procedure was repeated until each compound was saturated and those being not dissolved were filtered, to prepare each saturated aqueous solution.
Then, the saturated aqueous solution was put into a weighed empty container (A), followed by weighing (B). Then, the saturated aqueous solution in the container was concentrated in reduced pressure and dried under vacuum, followed by weighing (C). The solubility of each solution was calculated according to the following Equation 1, and the results thereof are shown in Table 2.

CC(C)CCC[C@@H](C)[C@H]1CC[C@H]2C3=CC=C4C[C@@H](O)CC[C@]4(C)[C@H]3CC[C@]12C [7-Dehydrocholesterol, 7-dehydrocholesterol]
Solubility: Insoluble
